Data from ChEMBL document CHEMBL4651402, “Screening of ~5500 FDA-approved drugs and clinical candidates for anti-SARS-CoV-2 activity” (2021).

System: SARS-CoV-2
Assay: microbe, parasite or virus in culture
Settings: Severe acute respiratory syndrome coronavirus 2, Vero C1008, 48 h

| SMILES | IC50 [µM] | IC50 (read-out: pIC50 (converted)) [µM] |
| --- | --- | --- |
| C[C@]12CC[C@@H]3c4ccc(O)cc4CC[C@H]3[C@@H]1CCC2=O [ESTRONE] | > 20 | > 20 |
| Cc1c(C(=O)NN2CCCCC2)nn(-c2ccc(Cl)cc2Cl)c1-c1ccc(Cl)cc1 [RIMONABANT] | > 20 | > 20 |
| N[C@@H](C(=O)O)[C@@H](O)[C@H](O)[C@H](O)CO [GLUCOSAMINIC ACID] | > 20 | > 20 |
| CN(C)CCCN1c2ccccc2Sc2ccc(Cl)cc21 [CHLORPROMAZINE] | > 20 | > 20 |
| Cc1cc(/N=C(\Nc2nccs2)NC2CCCCC2)c2ccccc2n1 [TIMEGADINE] | > 20 | > 20 |
| Cc1c(NC(=O)OC[C@@H]2COCCN2)cn2ncnc(Nc3ccc4c(cnn4Cc4cccc(F)c4)c3)c12 [AC-480] | > 20 | > 20 |
| C=C1[C@@H](O)C2/C=C\C[C@H](C)C(=O)[C@](C)(O)/C=C/[C@@H](OC(C)=O)[C@]23C(=O)N[C@H](Cc2ccccc2)[C@@H]3[C@@H]1C (some centres not stated) | > 20 | > 20 |
| OC[C@H]1NC[C@H](O)[C@@H](O)[C@@H]1O [DUVOGLUSTAT] | > 20 | > 20 |
| CC(C)N(CCC(C(N)=O)(c1ccccc1)c1ccccn1)C(C)C (configuration not stated) [DISOPYRAMIDE] | > 20 | > 20 |
| OC[C@H]1OC(O)[C@H](O)[C@@H](O)[C@@H]1O (some centres not stated) [DEXTROSE] | > 20 | > 20 |
| CC[C@@]1(O)C(=O)OCc2c1cc1n(c2=O)Cc2cc3c([N+](=O)[O-])cccc3nc2-1 [RUBITECAN] | > 20 | > 20 |
| NC1=NC(=O)N(C2CC(O)C(CO)O2)CN1 (configuration not stated) | > 20 | > 20 |
| CCCCC(C)(O)C/C=C/[C@H]1[C@H](O)CC(=O)[C@@H]1CCCCCCC(=O)OC (some centres not stated) [MISOPROSTOL] | > 20 | > 20 |
| CNC(C)CCC=C(C)C (configuration not stated) [ISOMETHEPTENE] | > 20 | > 20 |
| N#CC(c1ccc(Cl)cc1)c1c(Cl)cc(-n2ncc(=O)[nH]c2=O)cc1Cl (configuration not stated) [DICLAZURIL] | > 20 | > 20 |
| CC(C)OC(=O)CCC/C=C\C[C@@H]1[C@@H](CC[C@@H](O)CCc2ccccc2)[C@H](O)C[C@@H]1O [LATANOPROST] | > 20 | > 20 |
| NS(=O)(=O)c1ccc(N2CCN(CC[C@@H]3OCCc4ccccc43)CC2)cc1 [SONEPIPRAZOLE] | > 20 | > 20 |
| CS(=O)(=O)N1CCN(Cc2cc3nc(-c4cccc5[nH]ncc45)nc(N4CCOCC4)c3s2)CC1 [PICTILISIB] | > 20 | > 20 |
| NC(N)=NOCC[C@H](N)C(=O)O [CANAVANINE] | > 20 | > 20 |
| CC1(C)C2=CCC3C(CCC4(C)C3CC[C@]4(C)O)C2(C)Cc2cnoc21 (some centres not stated) | > 20 | > 20 |
| CC(C)(C)OC(=O)c1ncn2c1[C@@H]1CCCN1C(=O)c1c(Br)cccc1-2 [BRETAZENIL] | > 20 | > 20 |
| O=C(O)c1cc(O)c(O)c(O)c1 [GALLIC ACID] | > 20 | > 20 |
| O=C(Cn1c(=O)sc2ccc(Cl)cc21)N1CCN(CCO)CC1 [TIARAMIDE] | > 20 | > 20 |
| CNc1ccccc1C(=O)O | > 20 | > 20 |

| SMILES | IC50 [µM] | IC50 (read-out: pIC50 (converted)) [µM] |
| --- | --- | --- |
| CC[C@H](C)n1ncn(-c2ccc(N3CCN(c4ccc(OC[C@H]5CO[C@@](Cn6cncn6)(c6ccc(F)cc6F)O5)cc4)CC3)cc2)c1=O | > 20 | > 20 |
| NC(C(=O)O)C(O)c1ccc(O)c(O)c1 (configuration not stated) | > 20 | > 20 |
| CC(=O)OC1CCC2C3CCc4cc(O)ccc4C3CCC12C (configuration not stated) | > 20 | > 20 |
| CCN1CC2CN(C)CC(C1)C2OC(=O)c1ccc(Cl)cc1 (configuration not stated) | > 20 | > 20 |
| Cc1cc(Nc2cc(N3CCN(C)CC3)nc(/C=C/c3ccccc3)n2)n[nH]1 [ENMD-2076] | > 20 | > 20 |
| CC(=O)N[C@@H](CCC(N)=O)C(=O)O | > 20 | > 20 |
| OC[C@@H](O)[C@@H](O)[C@H](O)[C@@H](O)CO [SORBITOL] | > 20 | > 20 |
| Nc1ncnc2c1ncn2[C@@H]1O[C@H](CO)C[C@H]1O [CORDYCEPIN] | > 20 | > 20 |
| CCC(=O)OCC(=O)[C@@]1(OC(=O)CC)C(C)CC2C3CCC4=CC(=O)C=CC4(C)[C@@]3(Cl)C(O)CC21C (some centres not stated) | > 20 | > 20 |
| CCN(CC)CCNC(=O)c1cc(Cl)c(N)cc1OC(C)C(C)=O (configuration not stated) [BATANOPRIDE] | > 20 | > 20 |
| C=C[C@H]1CN2CC[C@H]1C[C@H]2[C@H](O)c1ccnc2ccccc12 [CINCHONIDINE] | > 20 | > 20 |
| CCC(CC)[C@H](c1ccc(Nc2nc3ccccc3s2)cc1)n1cncn1 | > 20 | > 20 |
| CN(C)CCN(Cc1ccc(Cl)cc1)c1ccccn1 [CHLOROPYRAMINE] | > 20 | > 20 |
| Cc1cnc2c(c1)CCCC2C(N)=S (configuration not stated) [TIQUINAMIDE] | > 20 | > 20 |
| Cc1sc2ccccc2c1CC1=NCCN1 [METIZOLINE] | > 20 | > 20 |
| CCC[C@H](N[C@@H](C)C(=O)N1C2CCCCC2C[C@H]1C(=O)O)C(=O)OCC (some centres not stated) | > 20 | > 20 |
| O=C(O)CCCCCCC[C@@H](O)[C@@H](O)CCCCCCO | > 20 | > 20 |
| OC[C@H]1O[C@@](CO)(O[C@H]2O[C@H](CO)[C@@H](O)[C@H](O)[C@H]2O)[C@@H](O)[C@@H]1O [SUCROSE] | > 20 | > 20 |
| CC(C)S(=O)(=O)n1c(N)nc2ccc(C(=NO)c3ccccc3)cc21 [VIROXIME] | > 20 | > 20 |
| CC(C)Cn1c(=O)n(C)c(=O)c2nc[nH]c21 [ISOBUTYLMETHYLXANTHINE] | > 20 | > 20 |
| CS(=O)(=O)CCCn1c(Cn2c(=O)n(CC(F)(F)F)c3ccncc32)cc2cc(Cl)ccc21 [RILEMATOVIR] | > 20 | > 20 |
| C1CCc2nnnn2CC1 [PENTYLENETETRAZOL] | > 20 | > 20 |
| CCC(O)(COC(N)=O)c1ccccc1 (configuration not stated) [HYDROXYPHENAMATE] | > 20 | > 20 |
| NC(=O)NC1NC(=O)NC1=O (configuration not stated) [ALLANTOIN] | > 20 | > 20 |

| SMILES | IC50 [µM] | IC50 (read-out: pIC50 (converted)) [µM] |
| --- | --- | --- |
| O=C(/C=C/c1cccnc1)NCCCCC1CCN(C(=O)c2ccccc2)CC1 [DAPORINAD] | > 20 | > 20 |
| COc1ccc2[nH]cc(CCN(C)C)c2c1 [MEBUFOTENIN] | > 20 | > 20 |
| Cc1ccc2c(-c3ccccc3)nc(=O)n(C(C)C)c2c1 [PROQUAZONE] | > 20 | > 20 |
| C=C(C)[C@@H]1CC[C@]2(CO)CC[C@]3(C)[C@H](CC[C@@H]4[C@@]5(C)CC[C@H](O)C(C)(C)[C@@H]5CC[C@]43C)[C@@H]12 [BETULIN] | > 20 | > 20 |
| CCN1CCCC1CNC(=O)c1cc(S(=O)(=O)CC)c(N)cc1OC (configuration not stated) [AMISULPRIDE] | > 20 | > 20 |
| COc1ccc2c(c1)c(CC(=O)NC(CO)C(=O)O)c(C)n2C(=O)c1ccc(Cl)cc1 (configuration not stated) | > 20 | > 20 |
| CCC(=O)C1(c2cccc(O)c2)CCN(C)CC1 [KETOBEMIDONE] | > 20 | > 20 |
| O=C(C[S+]([O-])Cc1ccco1)NC/C=C\COc1cc(CN2CCCCC2)ccn1 (configuration not stated) [LAFUTIDINE] | > 20 | > 20 |
| Cc1cc(CC(C)CC(C)(C)C)n(O)c(=O)c1 (configuration not stated) [PIROCTONE] | > 20 | > 20 |
| CCCCCCCCCC(=O)N[C@@H](Cc1c[nH]c2ccccc12)C(=O)N[C@H](CC(N)=O)C(=O)N[C@@H](CC(=O)O)C(=O)N[C@@H]1C(=O)NCC(=O)N[C@@H](CCCN)C(=O)N[C@@H](CC(=O)O)C(=O)N[C@H](C)C(=O)N[C@@H](CC(=O)O)C(=O)NCC(=O)N[C@H](CO)C(=O)N[C@@H]([C@H](C)CC(=O)O)C(=O)N[C@@H](CC(=O)c2ccccc2N)C(=O)O[C@@H]1C | > 20 | > 20 |
| CC(=O)N(O)CCCCCNC(=O)CCC(=O)N(O)CCCCCNC(=O)CCC(=O)N(O)CCCCCN [DEFEROXAMINE] | > 20 | > 20 |
| CCC(=O)C(CCN(C)C)(c1ccccc1)c1ccccc1 [NORMETHADONE] | > 20 | > 20 |
| C=C1CC2C3C=C(C)C4=CC(=O)CCC4(C)C3CCC2(C)C1(OC(C)=O)C(C)=O (configuration not stated) | > 20 | > 20 |
| CCOc1ccc(NC(=O)C(C)O)cc1 (configuration not stated) | > 20 | > 20 |
| Cc1ncccc1NC(=O)c1ccc2c(c1)CC[C@@H]1C[C@@](OP(=O)(O)O)(C(F)(F)F)CC[C@@]21Cc1ccccc1 [FOSDAGROCORAT] | > 20 | > 20 |
| CCOC(=O)C(C)(C)Oc1ccc(Cl)cc1 [CLOFIBRATE] | > 20 | > 20 |
| N[C@@H](CCC(=O)O)C(=O)O [GLUTAMIC ACID] | > 20 | > 20 |
| N=C(Nc1ccccc1)Nc1ccccc1 | > 20 | > 20 |
| NS(=O)(=O)OC[C@@H]1C[C@@H](n2ccc3c(N[C@H]4CCc5ccccc54)ncnc32)C[C@@H]1O [PEVONEDISTAT] | > 20 | > 20 |
| CC[C@]1(O)C[C@H]2CN(CCc3c([nH]c4ccccc34)[C@@](C(=O)OC)(c3cc4c(cc3OC)N(C=O)[C@H]3[C@@](O)(C(=O)OC)[C@H](OC(C)=O)[C@]5(CC)C=CCN6CC[C@]43[C@@H]65)C2)C1 [VINCRISTINE] | > 20 | > 20 |
| C[C@]1(O)CC[C@H]2[C@@H]3CC[C@@]45O[C@]4(C)C(O)=C(C#N)C[C@]5(C)[C@H]3CC[C@@]21C [EPOSTANE] | > 20 | > 20 |
| C=CCOc1ccc(CC(=O)O)cc1Cl [ALCLOFENAC] | > 20 | > 20 |
| Clc1ccc(C2(Cn3cncn3)OCCO2)c(Cl)c1 [AZACONAZOLE] | > 20 | > 20 |
